As usually defined, the IC50 is the concentration needed to halve the response being measured. A low value points to higher potency.

Each structure is given as a SMILES string. Values after ≈ are worked out from the molar mass of the structure shown.

What all share (format): cell-based
Experiment [1] relates to A549 (human lung carcinoma). The experiment can be described thus: Cytotoxicity against A549 cell line in culture. Conditions: A549 human lung carcinoma cells in culture.
For the next experiment, the system named is P388 (leukemia). The experiment is described as follows: Cytotoxicity against P388 cell line in culture. Conditions: Mus musculus; P388 leukemia cells in culture.
The next experiment has as its system MEL-28 (human melanoma). The experiment is described as follows: Cytotoxicity against MEL-28 cell line in culture. The conditions noted are these: SK-MEL-28; MEL-28 human melanoma cells in culture.
The subject of experiment [2] is HT29 (human colon carcinoma). The experiment is described as follows: Cytotoxicity against HT29 cell line in culture. Conditions: HT-29; HT29 human colon carcinoma cells in culture.

In the case of `C/C=C(C)/C=C/CCC[C@@]1(OC)C[C@H](C)[C@H](CC(=O)O)OO1` [Epidioxymanadic A, epidioxymanadic acid A], the IC50 in experiment [1] is 1 µg/mL (≈ 3.2 µM); with P388 (leukemia) it was 0.5 µg/mL (≈ 1.6 µM); in the experiment with MEL-28 (human melanoma) it was 5 µg/mL (≈ 16 µM); in experiment [2], 2 µg/mL (≈ 6.4 µM).
For `CC/C=C(C)/C=C/CCC[C@@]1(OC)C[C@H](C)[C@H](CC(=O)O)OO1` [Epidioxymanadic B, epidioxymanadic acid B] the same measures were 1 µg/mL (≈ 3.06 µM), 0.5 µg/mL (≈ 1.53 µM), 2.5 µg/mL (≈ 7.66 µM) and 2 µg/mL (≈ 6.13 µM).

The values are drawn from patent US5514705A, “Epidioxymanadic acids A and B” (PharmaMar, S.A., priority 1994, dated 1996).
